Here are results for four molecules from paper PMC6488579 (2019).

Experiment [1] concerns HOC6-S-S-C6-DEX04 (DNA, aptamer) ACACGACGAGGGACGAGGAGTACTTGCCAACGATAACGTCGTTGGATCTGTCTGTGCCC
Briefly: electrochemical impedance, Rct change.

Experiment [2] has as its system DEX01 (DNA, aptamer) ATATCATATGCTCCAATTACACCCCACGTAGTGTCACAGCACGCTTATAGTAAGTGAAGTGACGGGTTGCTGATGTGATATTACACTTGCGATCT
Briefly: fluorescence bead-binding saturation, eluted DNA. As to conditions: immobilised compound (DXN Sepharose 6β beads); binding buffer; aptamer 50-400 nM.

The subject of experiment [3] is DEX03 (DNA, aptamer) ATATCATATGCTCCAATTACGCGTAGGGATGTGTAAGGTCTGTACACCTCGGTTTACTCTATGCTTCGCATATTGTCGATATTACACTTGCGATCT
Briefly: fluorescence bead-binding saturation, eluted DNA. As to conditions: immobilised compound (DXN Sepharose 6β beads); binding buffer; aptamer 50-400 nM.

Experiment [4] has as its system DEX04 (DNA, aptamer) ATATCATATGCTCCAATTACACGACGAGGGACGAGGAGTACTTGCCAACGATAACGTCGTTGGATCTGTCTGTGCCCATATTACACTTGCGATCT
Briefly: fluorescence bead-binding saturation, eluted DNA. The note with it: immobilised compound (DXN Sepharose 6β beads); binding buffer; aptamer 50-400 nM.

Experiment [5] relates to DEX10 (DNA, aptamer) ATATCATATGCTCCAATTGGACAGCTGGCCGCGAAGCGAGACACGTATAAGGTACTATACGGCTGGCATATGTATCTGATATTACACTTGCGATCT
The experiment can be described thus: fluorescence bead-binding saturation, eluted DNA. The note with it: immobilised compound (DXN Sepharose 6β beads); binding buffer; aptamer 50-400 nM.

Experiment [6] deals with DEX05 (DNA, aptamer) ATATCATATGCTCCAATTACAGGCTTGGATTAGTGTATCCAACTAGTATCGTGTATACTAGGCCCTTGCTACCCTGTGATATTACACTTGCGATCT
Briefly: fluorescence bead-binding saturation, eluted DNA. As to conditions: immobilised compound (DXN Sepharose 6β beads); aptamer up to 400 nM; NB [sic].

Experiment [7] concerns DEX06 (DNA, aptamer) ATATCATATGCTCCAATTACACACGAAACACAAGCAGTGAGACTGCCTACGTCCGTAGTTGTGTTGAGTTTGCTCTCCATATTACACTTGCGATCT
Briefly: fluorescence bead-binding saturation, eluted DNA. As to conditions: immobilised compound (DXN Sepharose 6β beads); aptamer up to 400 nM; NB [sic].

The test system of experiment [8] is DEX04 (DNA, aptamer) ATATCATATGCTCCAATTACACGACGAGGGACGAGGAGTACTTGCCAACGATAACGTCGTTGGATCTGTCTGTGCCCATATTACACTTGCGATCT
Briefly: fluorescence bead-binding, eluted DNA. The note with it: 150 nM aptamer.

The mark [9] stands for this setting: highest tested 1 nM (below detection limit for DXN), measured in 10 mM PBS pH 7.4.

Usually KD stands for the constant that tells how readily two partners part at equilibrium. High values mean a looser complex, low ones a tighter complex. `C[C@@H]1C[C@H]2[C@@H]3CCC4=CC(=O)C=C[C@]4(C)[C@@]3(F)[C@@H](O)C[C@]2(C)[C@@]1(O)C(=O)CO`: the binding result in experiment [1] (free DXN 50 and 100 nM, 10 mM PBS pH 7.4, 10 mM ferri/ferrocyanide) is listed as “yes”; in experiment [6] it was “no”; in experiment [7], “no”. Further, the KD is 15.71 nM in experiment [2], 72.83 nM in experiment [3], 18.35 nM in experiment [4] and 715 nM in experiment [5].
Turning to `C#C[C@]1(O)CC[C@H]2[C@@H]3CCC4=CC(=O)CC[C@@H]4[C@H]3CC[C@@]21C`, the binding entry is “no” in experiment [8] (immobilised compound (NET beads, 5 µL, 6–14 µmol/mL)) and “no” in experiment [1] (setting [9]).
Turning to `CC(=O)[C@H]1CC[C@H]2[C@@H]3CCC4=CC(=O)CC[C@]4(C)[C@H]3CC[C@]12C`, the binding result in experiment [8] (immobilised compound (P4 beads, 20 µL, 4.4 nmol/mL)) is “no”; in experiment [1] (setting [9]) it was “no”.
Take `C[C@]12CC[C@@H]3c4ccc(O)cc4CC[C@H]3[C@@H]1CC[C@@H]2O`: the binding entry in experiment [8] (immobilised compound (E2 beads, 5 µL, 6–14 µmol/mL)) is “no”; in experiment [1] (setting [9]), “no”.
